Measurements from PMC6630214, “Design, Synthesis and Biological Evaluation of 7-Chloro-9H-pyrimido[4,5-b]indole-based Glycogen Synthase Kinase-3β Inhibitors” (Molecules, 2019).

What was measured:
[1] = biological target: T1, JAK3 (Homo sapiens, UniProt P52333); assay: JAK3 enzyme-linked immunosorbent assay (ELISA); type: biochemical
T1 sequence (P52333 1-1124): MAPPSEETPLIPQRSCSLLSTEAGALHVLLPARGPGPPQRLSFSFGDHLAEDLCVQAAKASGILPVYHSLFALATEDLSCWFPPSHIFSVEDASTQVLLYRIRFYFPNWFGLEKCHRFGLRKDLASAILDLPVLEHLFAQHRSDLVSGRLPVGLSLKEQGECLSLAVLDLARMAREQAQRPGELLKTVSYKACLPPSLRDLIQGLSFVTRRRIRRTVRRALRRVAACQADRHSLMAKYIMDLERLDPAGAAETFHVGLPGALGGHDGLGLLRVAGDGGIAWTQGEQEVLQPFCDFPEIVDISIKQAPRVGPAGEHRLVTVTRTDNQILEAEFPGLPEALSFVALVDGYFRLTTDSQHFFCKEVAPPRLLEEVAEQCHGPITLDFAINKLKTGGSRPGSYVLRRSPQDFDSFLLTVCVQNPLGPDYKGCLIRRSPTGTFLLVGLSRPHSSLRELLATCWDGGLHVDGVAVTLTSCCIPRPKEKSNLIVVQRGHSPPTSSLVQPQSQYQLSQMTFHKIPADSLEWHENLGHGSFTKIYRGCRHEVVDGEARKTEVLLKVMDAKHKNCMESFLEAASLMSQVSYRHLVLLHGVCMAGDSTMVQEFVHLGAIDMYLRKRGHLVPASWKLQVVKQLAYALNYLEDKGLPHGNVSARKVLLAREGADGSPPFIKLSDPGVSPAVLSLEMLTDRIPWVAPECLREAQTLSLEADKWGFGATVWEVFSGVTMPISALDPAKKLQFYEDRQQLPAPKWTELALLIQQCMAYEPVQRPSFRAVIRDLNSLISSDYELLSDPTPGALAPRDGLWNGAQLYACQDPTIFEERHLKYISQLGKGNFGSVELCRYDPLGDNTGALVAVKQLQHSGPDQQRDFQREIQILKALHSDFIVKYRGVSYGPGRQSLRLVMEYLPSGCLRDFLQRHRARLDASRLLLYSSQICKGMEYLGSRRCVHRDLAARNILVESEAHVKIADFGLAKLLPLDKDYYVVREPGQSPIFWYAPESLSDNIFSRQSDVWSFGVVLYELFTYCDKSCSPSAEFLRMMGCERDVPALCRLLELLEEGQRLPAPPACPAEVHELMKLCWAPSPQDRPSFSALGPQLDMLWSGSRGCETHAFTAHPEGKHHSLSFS
Method: Furthermore, 14b and 24 were examined for their inhibitory activity on the possible off-target JAK3, as this class of GSK-3β inhibitors is derived from the pan-JAK inhibitor tofacitinib.
JAK3 Inhibition by Compounds 14b and 24
Compound 14b and 24 were analyzed for their inhibitory activity on JAK3 in an enzyme -
linked immunosorbent assay (ELISA). Single point measurements at compound
concentrations of 5 µM were conducted .
Table S2. JAK3 inhibition of 14b and 24 in the ELISA.
Cpd. JAK3 inhibition [%] a […]

[2] = Metabolic stability in human liver microsomes (HLM); type: in vitro ADME; settings: after an incubation time of 120 min, substrate 100 µM
Method: In a HLM stability assay, 14b and 24 were intensively degraded during a timeframe of 120 min (25% and 8% remaining parent compound at the endpoint of the experiment, respectively; for details see Tables S3 and S4 as well as Figures S4 and S5, Supplementary Materials). The corresponding unsubstituted piperidines were observed as prominent metabolites.
Metabolism in Human Liver Microsomes (HLM) of Compounds 14b and 24
Microsomes from liver, pooled from human (male and female) (Lot: SLBQ7487V) were purchased from Merck (Schnelldorf, Germany). The substrate (compounds 14b and 24, respectively) (100 µM), an NADPH-regenerating syst em (5 mM Glucose-6-phosphate, 5 U/mL Glucose -6-phosphate dehydrogenase and 1 mM NADP +) and 4 mM MgCl2⋅6 H2O in 0.1 M Tris buffer (pH 7.4) were preincubated for 5 min at 37°C and 750 rpm on a shaker. The reaction was started by the addition of HLM and then split into aliquots (50 µL). The reaction was quenched at […] time points (0, 10, 20, 30, 60 and 120 min) by addition of 100 µL internal standard (30 µM in MeCN). The samples were vortexed for 30 s and centrifuged (19,800 relative centrifugal force/4°C/10 min). The supernatant was directly used for LC-MS analysis (see below). All incubations were conducted in triplicates. […]
The metabolite formation was analyzed with an Alliance 2695 Separations Module (Waters GmbH, Eschborn). […]

[3] = biological target: GSK-3β (Homo sapiens, UniProt P49841); assay: ADP Glo GSK-3β kinase assay; type: biochemical; settings: for IC50 / GSK-3β inhibition (in words): ADP Glo kinase assay; for IC50: n = 2 (14b n = 5, 24 n = 3), read-out: IC50 (µM) Mean ± SEM GSK-3β; for GSK-3β inhibition (in words): hit 1 from kinome-wide screening
GSK-3β, sequence (P49841 whole entry): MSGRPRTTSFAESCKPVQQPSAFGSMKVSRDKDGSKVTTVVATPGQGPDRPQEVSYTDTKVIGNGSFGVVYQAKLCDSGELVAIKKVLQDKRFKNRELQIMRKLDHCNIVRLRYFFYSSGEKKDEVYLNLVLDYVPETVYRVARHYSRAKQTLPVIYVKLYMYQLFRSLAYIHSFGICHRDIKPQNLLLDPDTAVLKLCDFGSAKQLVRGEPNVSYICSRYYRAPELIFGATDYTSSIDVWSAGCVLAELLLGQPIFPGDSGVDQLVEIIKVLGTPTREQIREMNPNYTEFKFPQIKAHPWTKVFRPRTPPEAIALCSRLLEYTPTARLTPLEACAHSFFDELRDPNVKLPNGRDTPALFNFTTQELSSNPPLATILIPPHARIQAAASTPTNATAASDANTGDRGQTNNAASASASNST
Method: To extend the biological profile of this novel class of 7-chloro-9H-pyrimido[4,5-b]indole-based GSK-3β inhibitors, we tested the lead compound 14b for its ATP competition in our ADP Glo assay system.
ATP Binding Competition of Compound 14b
Compound 14b was analyzed for its competition with ATP in an ADP Glo GSK-3β assay. To
this end, a dilution series of 14b was incubated with 25 µM, 100 µM and 500 µM of ATP and
corresponding IC50 values were determined. Results and inhibition curves are listed in
Table S1. IC50 values for compound 14b in the ATP binding competition experiment.
ATP concentration [µM] GSK-3β
a IC50 values were determined in an ADP Glo kinase assay , n = 1; b n = 5.
Figure S3. Inhibition curves of compound 14b in the presence of 100 µM and 500 µM ATP.
(1 picture or pasted object on this page, not shown here)

| Structure (SMILES) | IC50 [3] | GSK-3β inhibition (in words) [3] | further results |
| --- | --- | --- | --- |
| C[C@@H]1CCN(C(=O)CC#N)C[C@@H]1N(C)c1ncnc2[nH]c3cc(Cl)ccc3c12 [Compound 1, 3-((3R,4R)-3-((7-Chloro-9H-pyrimido[4,5-b]indol-4-yl)(methyl)amino)-4-methylpiperidin-1-yl)-3-oxopropanenitrile] | – | single-digit micromolar range | – |
| CN(c1ncnc2[nH]c3cc(Cl)ccc3c12)C1CCCN(C(=O)CC#N)C1 (stereo not drawn) [Compound 14a, 3-(3-((7-Chloro-9H-pyrimido[4,5-b]indol-4-yl)(methyl)amino)piperidin-1-yl)-3-oxopropanenitrile] | 1.86 ± 0.113 µM | – | – |
| CN(c1ncnc2[nH]c3cc(Cl)ccc3c12)C1CCCN(CCC(N)=O)C1 (stereo not drawn) [Compound 14c, 3-(3-((7-Chloro-9H-pyrimido[4,5-b]indol-4-yl)(methyl)amino)piperidin-1-yl)propanamide] | > 10 µM | dramatic decrease in activity | – |
| COC(=O)CCN1CCCC(N(C)c2ncnc3[nH]c4cc(Cl)ccc4c23)C1 (stereo not drawn) [Compound 14d, Methyl-3-(3-((7-chloro-9H-pyrimido[4,5-b]indol-4-yl)(methyl)amino)piperidin-1-yl)propanoate] | > 10 µM | dramatic decrease in activity | – |
| CCCN1CCCC(N(C)c2ncnc3[nH]c4cc(Cl)ccc4c23)C1 (stereo not drawn) [Compound 14e, 7-Chloro-N-methyl-N-(1-propylpiperidin-3-yl)-9H-pyrimido[4,5-b]indol-4-amine] | > 10 µM | severe decrease in activity | – |
| CC(C)N1CCCC(N(C)c2ncnc3[nH]c4cc(Cl)ccc4c23)C1 (stereo not drawn) [Compound 14f, 7-Chloro-N-(1-isopropylpiperidin-3-yl)-N-methyl-9H-pyrimido[4,5-b]indol-4-amine] | > 10 µM | severe decrease in activity | – |
| CN(c1ncnc2[nH]c3cc(Cl)ccc3c12)C1CCCN(C2CCCC2)C1 (stereo not drawn) [Compound 14g, 7-Chloro-N-(1-cyclopentylpiperidin-3-yl)-N-methyl-9H-pyrimido[4,5-b]indol-4-amine] | > 10 µM | severe decrease in activity | – |
| CN(c1ncnc2[nH]c3cc(Cl)ccc3c12)C1CCCN(Cc2ccco2)C1 (stereo not drawn) [Compound 14h, 7-Chloro-N-(1-(furan-2-ylmethyl)piperidin-3-yl)-N-methyl-9H-pyrimido[4,5-b]indol-4-amine] | > 10 µM | – | – |
| CN(c1ncnc2[nH]c3cc(Cl)ccc3c12)C1CCCN(Cc2ccncc2)C1 (stereo not drawn) [Compound 14i, 7-Chloro-N-methyl-N-(1-(pyridin-4-ylmethyl)piperidin-3-yl)-9H-pyrimido[4,5-b]indol-4-amine] | > 10 µM | – | – |
| CN(c1ncnc2[nH]c3cc(Cl)ccc3c12)C1CCCN(Cc2cccc(C#N)c2)C1 (stereo not drawn) [Compound 14j, 3-((3-((7-Chloro-9H-pyrimido[4,5-b]indol-4-yl)(methyl)amino)piperidin-1-yl)methyl)benzonitrile] | > 10 µM | – | – |
| CN(c1ncnc2[nH]c3cc(Cl)ccc3c12)C1CCCN(CCC(F)(F)F)C1 (stereo not drawn) [Compound 14k, 7-Chloro-N-methyl-N-(1-(3,3,3-trifluoropropyl)piperidin-3-yl)-9H-pyrimido[4,5-b]indol-4-amine] | > 10 µM | inactive | – |
| CN(c1ncnc2[nH]c3cc(Cl)ccc3c12)C1CCCN(CC#N)C1 (stereo not drawn) [Compound 14l, 2-(3-((7-Chloro-9H-pyrimido[4,5-b]indol-4-yl)(methyl)amino)piperidin-1-yl)acetonitrile] | > 10 µM | inactive | – |

More lines, main results first:

| IC50 [3] | GSK-3β inhibition (in words) [3] | Structure (SMILES) | further results |
| --- | --- | --- | --- |
| 0.13 ± 0.008 µM | – | N#CCCN1CC[C@@H]2CCN(c3ncnc4[nH]c5cc(Cl)ccc5c34)[C@@H]2C1 (racemic) [Compound 24, 3-(3aRS,7aSR)-(1-(7-Chloro-9H-pyrimido[4,5-b]indol-4-yl)octahydro-6H-pyrrolo[2,3-c]pyridin-6-yl)-propanenitrile] | inhibition of JAK3 (in words) ([1]; ELISA): no significant inhibition; inhibition at 5 µM ([1]; single point measurements at compound concentrations of 5 µM, n = 3): 31.8 ± 3.8%; Metabolic stability [%], remaining parent compound [2]: 8%; increase in potency on GSK-3β ([3]; compared to unrigidized counterpart 14b): 6 fold |
| > 10 µM | severe decrease in activity | CN(c1ncnc2[nH]c3cc(Cl)ccc3c12)C1CCCN(CC2CC2)C1 (stereo not drawn) [Compound 14m, 7-Chloro-N-(1-(cyclopropylmethyl)piperidin-3-yl)-N-methyl-9H-pyrimido[4,5-b]indol-4-amine] | – |
| 3.56 ± 0.664 µM | remarkably reduced GSK-3β inhibition | CN(C)CCCN1CCCC(N(C)c2ncnc3[nH]c4cc(Cl)ccc4c23)C1 (stereo not drawn) [Compound 14n, 7-Chloro-N-(1-(3-(dimethylamino)propyl)piperidin-3-yl)-N-methyl-9H-pyrimido[4,5-b]indol-4-amine] | – |
| > 10 µM | inactive | CN(c1ncnc2c1c1ccc(Cl)cc1n2C)C1CCCN(CCC#N)C1 (stereo not drawn) [Compound 14o, 3-(3-((7-Chloro-9-methyl-9H-pyrimido[4,5-b]indol-4-yl)(methyl)amino)piperidin-1-yl)propanenitrile] | – |
| 7.02 ± 1.08 µM | – | CN(c1ncnc2[nH]c3cc(Cl)ccc3c12)C1CCN(CCC#N)C1 (stereo not drawn) [Compound 15, 3-(3-((7-Chloro-9H-pyrimido[4,5-b]indol-4-yl)(methyl)amino)pyrrolidin-1-yl)propanenitrile] | – |
| 1.54 ± 0.284 µM | – | CN(c1ncnc2[nH]c3cc(Cl)ccc3c12)C1CCCN(CCC#N)CC1 (stereo not drawn) [Compound 16, 3-(4-((7-Chloro-9H-pyrimido[4,5-b]indol-4-yl)(methyl)amino)azepan-1-yl)propanenitrile] | – |
| 13.3 ± 4.39 µM | – | CN(c1ncnc2[nH]c3cc(Cl)ccc3c12)C1CCN(CCC#N)CC1 [Compound 17, 3-(4-((7-Chloro-9H-pyrimido[4,5-b]indol-4-yl)(methyl)amino)piperidin-1-yl)propanenitrile] | – |
